The results in this text go back to article PMC10910856 (RSC Advances, 2024).

The target of the assay is α-glucosidase. Briefly: Alpha-glucosidase inhibitory assay. It counts as biochemical, Bovine. The following applies: for IC50: read-out: α-Glucosidase IC50 (μM ± SD), mean of three replicates.

The structures appear in SMILES notation.

On to `CC1=NCCNC(=O)C1=NNc1ccc(S(N)(=O)=O)cc1` [Compound 8, 4-(2-(5-Methyl-7-oxo-1,2,3,7-tetrahydro-6H-1,4-diazepin-6-ylidene)hydrazinyl)benzenesulfonamide], for which the IC50 (commonly the point on the concentration scale where inhibition reaches its midpoint) worked out at 110 ± 6.7 µM. In the case of `CC1=NOC(=O)C1=NNc1ccc(S(N)(=O)=O)cc1` [Compound 5, 4-(2-(3-Methyl-5-oxoisoxazol-4(5H)-ylidene)hydrazinyl)benzene-sulfonamide], the IC50 turned out to be 78.7 ± 5.9 µM. Still for that read-out and setting: to `CC1=NN(c2cc(Cl)ccc2Cl)C(=O)C1=NNc1ccc(S(N)(=O)=O)cc1` [Compound 3i, 4-(2-(1-(2,5-Dichlorophenyl)-3-methyl-5-oxo-1,5-dihydro-4H-pyrazol-4-ylidene)hydrazinyl)benzenesulfonamide] belongs 50.2 ± 4.8 µM; to `CC1=NNC(=S)NC(=O)C1/N=N/c1ccc(S(N)(=O)=O)cc1` (stereo not shown) [Compound 7, (E)-4-((7-methyl-5-oxo-3-thioxo-3,4,5,6-tetrahydro-2H-1,2,4-triazepin-6-yl)diazenyl)benzenesulfonamide], 85.4 ± 2.3 µM. Take `CC1=NN(c2cccc(C)c2)C(=O)C1=NNc1ccc(S(N)(=O)=O)cc1` [Compound 3f, 4-(2-(3-Methyl-5-oxo-1-(m-tolyl)-1,5-dihydro-4H-pyrazol-4-ylidene)-hydrazinyl)benzenesulfonamide]: the 50% inhibitory concentration (IC50) was found to be 55.4 ± 4.8 µM. With `CC1=NNC(=O)C1=NNc1ccc(S(N)(=O)=O)cc1` [Compound 4, 4-(2-(3-Methyl-5-oxo-1,5-dihydro-4H-pyrazol-4-ylidene)hydrazinyl)-benzenesulfonamide], the IC50 worked out at 76 ± 6.1 µM. On the same count and under the same terms, next, `CC1=NN(c2ccccn2)C(=O)C1=NNc1ccc(S(N)(=O)=O)cc1` [Compound 3j, 4-(2-(3-Methyl-5-oxo-1-(pyridin-2-yl)-1,5-dihydro-4H-pyrazol-4-ylidene)hydrazinyl)benzenesulfonamide]: 82.7 ± 7.4 µM. Take `CC1=NN(c2ccc(Cl)cc2)C(=O)C1=NNc1ccc(S(N)(=O)=O)cc1` [Compound 3b, 4-(2-(1-(4-Chlorophenyl)-3-methyl-5-oxo-1,5-dihydro-4H-pyrazol-4-ylidene)hydrazinyl)benzenesulfonamide]: the IC50 was determined as 25.1 ± 0.7 µM. Regarding `CC1=NN(c2ccccc2)C(=O)C1=NNc1ccc(S(N)(=O)=O)cc1` [Compound 3a, 4-(2-(3-Methyl-5-oxo-1-phenyl-1,5-dihydro-4H-pyrazol-4-ylidene) hydrazinyl)benzenesulfonamide], the IC50 was 19.4 ± 2.7 µM. Moreover, under “ratio of IC50 values”, the “times more active towards α-glucosidase enzyme than α-amylase enzyme” value is listed as 21 times. As for `CC1=NN(c2ccc(C)cc2)C(=O)C1=NNc1ccc(S(N)(=O)=O)cc1` [Compound 3g, 4-(2-(3-Methyl-5-oxo-1-(p-tolyl)-1,5-dihydro-4H-pyrazol-4-ylidene)-hydrazinyl)benzenesulfonamide], the 50% inhibitory concentration (IC50) is 99.1 ± 6.8 µM. On to `CC1=NN(c2cccc([N+](=O)[O-])c2)C(=O)C1=NNc1ccc(S(N)(=O)=O)cc1` [Compound 3h, 4-(2-(3-Methyl-1-(3-nitrophenyl)-5-oxo-1,5-dihydro-4H-pyrazol-4-ylidene)hydrazinyl)benzenesulfonamide], for which the IC50 came out at 25.6 ± 2.1 µM. Consider `CC1=NN(c2ccc(F)cc2)C(=O)C1=NNc1ccc(S(N)(=O)=O)cc1` [Compound 3e, 4-(2-(1-(4-Fluorophenyl)-3-methyl-5-oxo-1,5-dihydro-4H-pyrazol-4-ylidene)hydrazinyl)benzenesulfonamide], for which the concentration for half-maximal inhibition (IC50) is 44.8 ± 3.4 µM.
